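How tested: cells in 96-well plates exposed to compound for 48 hours at five concentrations. GI50 marks 50% less growth.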 The source made the active and inactive calls. Cut-off read from the data, not from the text of the source: active = GI50 up to about 1.1 µM and inactive = higher.
Legend:
Test in all cases: inhibition of tumour cell growth, NCI panel, 48 h
IGROV-1 = system: IGROV-1
COLO 205 = system: COLO 205
SK-MEL-5 = system: SK-MEL-5
OVCAR-4 = system: OVCAR-4
MDA-N = system: MDA-N
HCT-116 = system: HCT-116
OVCAR-8 = system: OVCAR-8
SK-MEL-28 = system: SK-MEL-28
SW-620 = system: SW-620
HL-60 = system: HL-60
SK-OV-3 = system: SK-OV-3
HCC 2998 = system: HCC 2998
HT-29 = system: HT-29
MDA-MB-435 = system: MDA-MB-435
SF-539 = system: SF-539
Malme-3M = system: Malme-3M
SN12C = system: SN12C
KM12 = system: KM12
UACC-62 = system: UACC-62
ACHN = system: ACHN
OVCAR-5 = system: OVCAR-5
SF-268 = system: SF-268
M14 = system: M14
CCRF-CEM = system: CCRF-CEM
A549 = system: A549
NCI-H23 = system: NCI-H23
T47D = system: T47D
SK-MEL-2 = system: SK-MEL-2
U-251 = system: U-251
UACC-257 = system: UACC-257
NCI-H226 = system: NCI-H226
RPMI-8226 = system: RPMI-8226
HOP-62 = system: HOP-62
Hs-578T = system: Hs-578T
PC-3 = system: PC-3
MOLT-4 = system: MOLT-4
NCI/ADR-RES = system: NCI/ADR-RES
MDA-MB-231 = system: MDA-MB-231
NCI-H460 = system: NCI-H460
MCF7 = system: MCF7
SNB-19 = system: SNB-19
CAKI-1 = system: CAKI-1
RXF 393 = system: RXF 393
HCT-15 = system: HCT-15
DU-145 = system: DU-145
OVCAR-3 = system: OVCAR-3
A498 = system: A498
K562 = system: K562
NCI-H522 = system: NCI-H522
LOX IMVI = system: LOX IMVI
EKVX = system: EKVX
SF-295 = system: SF-295
786-0 = system: 786-0
TK-10 = system: TK-10
SR = system: SR
SNB-75 = system: SNB-75
UO-31 = system: UO-31
HOP-92 = system: HOP-92

`CCOC(=O)c1[nH]c(-c2[nH]c(-c3[nH]c(-c4[nH]c(C(=O)OCC)c(C)c4C(=O)OCC)c(C(=O)OCC)c3C)c(C)c2C(=O)OCC)c(C(=O)OCC)c1C` was tested, and the GI50 (IGROV-1) was > 100 µM (inactive), the GI50 (COLO 205) was > 100 µM (inactive) and the GI50 (SK-MEL-5) was 50.4 µM (inactive). The GI50 (OVCAR-4) was > 100 µM (inactive), the GI50 (MDA-N) was > 100 µM (inactive) and the GI50 (HCT-116) was > 100 µM (inactive). The GI50 (OVCAR-8) was > 100 µM (inactive), the GI50 (SK-MEL-28) was > 100 µM (inactive) and the GI50 (SW-620) was > 100 µM (inactive). For the same compound, the GI50 (HL-60) was > 100 µM (inactive), the GI50 (SK-OV-3) was > 100 µM (inactive) and the GI50 (HCC 2998) was > 100 µM (inactive). For the same compound, the GI50 (HT-29) was > 100 µM (inactive), the GI50 (MDA-MB-435) was > 100 µM (inactive) and the GI50 (SF-539) was > 100 µM (inactive). The GI50 (Malme-3M) was > 100 µM (inactive), the GI50 (SN12C) was > 100 µM (inactive) and the GI50 (KM12) was > 100 µM (inactive). For the same compound, the GI50 (UACC-62) was > 100 µM (inactive), the GI50 (ACHN) was > 100 µM (inactive) and the GI50 (OVCAR-5) was > 100 µM (inactive). For the same compound, the GI50 (SF-268) was > 100 µM (inactive), the GI50 (M14) was > 100 µM (inactive) and the GI50 (CCRF-CEM) was > 100 µM (inactive). The GI50 (A549) was > 100 µM (inactive), the GI50 (NCI-H23) was > 100 µM (inactive) and the GI50 (T47D) was > 100 µM (inactive). For the same compound, the GI50 (SK-MEL-2) was > 100 µM (inactive), the GI50 (U-251) was > 100 µM (inactive) and the GI50 (UACC-257) was > 100 µM (inactive). For the same compound, the GI50 (NCI-H226) was > 100 µM (inactive), the GI50 (RPMI-8226) was > 100 µM (inactive) and the GI50 (HOP-62) was > 100 µM (inactive). For the same compound, the GI50 (Hs-578T) was > 100 µM (inactive), the GI50 (PC-3) was > 100 µM (inactive) and the GI50 (MOLT-4) was > 100 µM (inactive). The GI50 (NCI/ADR-RES) was > 100 µM (inactive), the GI50 (MDA-MB-231) was > 100 µM (inactive) and the GI50 (NCI-H460) was > 100 µM (inactive). For the same compound, the GI50 (MCF7) was > 100 µM (inactive), the GI50 (SNB-19) was > 100 µM (inactive) and the GI50 (CAKI-1) was > 100 µM (inactive). The GI50 (RXF 393) was > 100 µM (inactive), the GI50 (HCT-15) was greater than 100 µM and the GI50 (DU-145) was > 100 µM (inactive). For the same compound, the GI50 (OVCAR-3) was > 100 µM (inactive), the GI50 (A498) was > 100 µM (inactive) and the GI50 (K562) was > 100 µM (inactive). For the same compound, the GI50 (NCI-H522) was > 100 µM (inactive), the GI50 (LOX IMVI) was > 100 µM (inactive) and the GI50 (EKVX) was > 100 µM (inactive). For the same compound, the GI50 (SF-295) was > 100 µM (inactive), the GI50 (786-0) was > 100 µM (inactive) and the GI50 (TK-10) was > 100 µM (inactive).

With `COc1ccc(C(=O)/C=C/c2ccc(OCCCCCCCCCCOc3ccc(/C=C/C(=O)c4ccc(OC)c(OC)c4)cc3)cc2)c(OC)c1` the GI50 (SR) was > 100 µM (inactive), the GI50 (IGROV-1) was > 100 µM (inactive) and the GI50 (SNB-75) was > 100 µM (inactive). For the same compound, the GI50 (COLO 205) was > 100 µM (inactive), the GI50 (SK-MEL-5) was > 100 µM (inactive) and the GI50 (OVCAR-4) was > 100 µM (inactive). For the same compound, the GI50 (MDA-N) was > 100 µM (inactive), the GI50 (HCT-116) was > 100 µM (inactive) and the GI50 (OVCAR-8) was > 100 µM (inactive). The GI50 (SK-MEL-28) was > 100 µM (inactive), the GI50 (SW-620) was > 100 µM (inactive) and the GI50 (HL-60) was > 100 µM (inactive). For the same compound, the GI50 (SK-OV-3) was > 100 µM (inactive), the GI50 (HCC 2998) was > 100 µM (inactive) and the GI50 (HT-29) was > 100 µM (inactive). The GI50 (MDA-MB-435) was > 100 µM (inactive), the GI50 (SF-539) was > 100 µM (inactive) and the GI50 (SN12C) was > 100 µM (inactive). The GI50 (KM12) was > 100 µM (inactive), the GI50 (UACC-62) was > 100 µM (inactive) and the GI50 (ACHN) was > 100 µM (inactive). For the same compound, the GI50 (OVCAR-5) was > 100 µM (inactive), the GI50 (SF-268) was > 100 µM (inactive) and the GI50 (M14) was > 100 µM (inactive). For the same compound, the GI50 (CCRF-CEM) was > 100 µM (inactive), the GI50 (A549) was > 100 µM (inactive) and the GI50 (T47D) was > 100 µM (inactive). The GI50 (SK-MEL-2) was > 100 µM (inactive), the GI50 (U-251) was > 100 µM (inactive) and the GI50 (UACC-257) was > 100 µM (inactive). The GI50 (NCI-H226) was > 100 µM (inactive), the GI50 (RPMI-8226) was > 100 µM (inactive) and the GI50 (HOP-62) was > 100 µM (inactive). For the same compound, the GI50 (Hs-578T) was 76 µM (inactive), the GI50 (PC-3) was > 100 µM (inactive) and the GI50 (MOLT-4) was > 100 µM (inactive). For the same compound, the GI50 (NCI/ADR-RES) was > 100 µM (inactive), the GI50 (MDA-MB-231) was > 100 µM (inactive) and the GI50 (NCI-H460) was > 100 µM (inactive). For the same compound, the GI50 (MCF7) was > 100 µM (inactive), the GI50 (SNB-19) was > 100 µM (inactive) and the GI50 (UO-31) was > 100 µM (inactive). For the same compound, the GI50 (CAKI-1) was > 100 µM (inactive), the GI50 (RXF 393) was > 100 µM (inactive) and the GI50 (HCT-15) was greater than 100 µM. The GI50 (DU-145) was > 100 µM (inactive), the GI50 (K562) was > 100 µM (inactive) and the GI50 (EKVX) was > 100 µM (inactive). For the same compound, the GI50 (SF-295) was > 100 µM (inactive), the GI50 (786-0) was > 100 µM (inactive) and the GI50 (TK-10) was > 100 µM (inactive).

For `COc1ccc(/C=C2\N=C3NC(=O)C(N4CCCCC4)=C(N)N3C2=O)cc1`, the GI50 (SR) was > 100 µM (inactive), the GI50 (IGROV-1) was > 100 µM (inactive) and the GI50 (SNB-75) was 24.8 µM (inactive). For the same compound, the GI50 (COLO 205) was > 100 µM (inactive), the GI50 (SK-MEL-5) was > 100 µM (inactive) and the GI50 (OVCAR-4) was > 100 µM (inactive). For the same compound, the GI50 (MDA-N) was > 100 µM (inactive), the GI50 (HCT-116) was > 100 µM (inactive) and the GI50 (OVCAR-8) was > 100 µM (inactive). The GI50 (SK-MEL-28) was > 100 µM (inactive), the GI50 (SW-620) was > 100 µM (inactive) and the GI50 (HL-60) was 25.9 µM (inactive). The GI50 (SK-OV-3) was > 100 µM (inactive), the GI50 (HCC 2998) was > 100 µM (inactive) and the GI50 (HT-29) was > 100 µM (inactive). The GI50 (MDA-MB-435) was > 100 µM (inactive), the GI50 (SF-539) was > 100 µM (inactive) and the GI50 (Malme-3M) was > 100 µM (inactive). The GI50 (SN12C) was > 100 µM (inactive), the GI50 (KM12) was > 100 µM (inactive) and the GI50 (ACHN) was 70.6 µM (inactive). For the same compound, the GI50 (OVCAR-5) was > 100 µM (inactive), the GI50 (SF-268) was > 100 µM (inactive) and the GI50 (M14) was > 100 µM (inactive). For the same compound, the GI50 (CCRF-CEM) was > 100 µM (inactive), the GI50 (A549) was > 100 µM (inactive) and the GI50 (NCI-H23) was > 100 µM (inactive). For the same compound, the GI50 (T47D) was > 100 µM (inactive), the GI50 (U-251) was 52.8 µM (inactive) and the GI50 (UACC-257) was > 100 µM (inactive). For the same compound, the GI50 (NCI-H226) was > 100 µM (inactive), the GI50 (RPMI-8226) was > 100 µM (inactive) and the GI50 (HOP-92) was > 100 µM (inactive). The GI50 (Hs-578T) was 47.5 µM (inactive), the GI50 (MOLT-4) was > 100 µM (inactive) and the GI50 (NCI/ADR-RES) was > 100 µM (inactive). The GI50 (MDA-MB-231) was > 100 µM (inactive), the GI50 (MCF7) was > 100 µM (inactive) and the GI50 (SNB-19) was > 100 µM (inactive). The GI50 (UO-31) was > 100 µM (inactive), the GI50 (CAKI-1) was > 100 µM (inactive) and the GI50 (RXF 393) was > 100 µM (inactive). The GI50 (HCT-15) was greater than 100 µM, the GI50 (DU-145) was > 100 µM (inactive) and the GI50 (A498) was > 100 µM (inactive). The GI50 (K562) was 62.4 µM (inactive), the GI50 (NCI-H522) was > 100 µM (inactive) and the GI50 (LOX IMVI) was > 100 µM (inactive). The GI50 (EKVX) was > 100 µM (inactive), the GI50 (SF-295) was 73.6 µM (inactive) and the GI50 (786-0) was > 100 µM (inactive). For the same compound, the GI50 (TK-10) was 47 µM (inactive).

Reference: ChEMBL document CHEMBL1201862, “PubChem BioAssay data set” (2004)
